From US11725011B2, “Bicyclic urea kinase inhibitors and uses thereof” (The Broad Institute, Inc., priority 2016, dated 2023)

Tests used:
Conditions in all cases: 1 uM
EPHA7 = EPHA7 (Homo sapiens (Human), UniProt Q15375); assay: KINOMEscan; type: binding
KIT (D816V) = KIT (D816V) (Homo sapiens (Human), UniProt P10721, D816V); assay: KINOMEscan; type: binding
MAP4K5 = MAP4K5 (Homo sapiens (Human), UniProt Q9Y4K4); assay: KINOMEscan; type: binding
MAP4K3 = MAP4K3 (Homo sapiens (Human), UniProt Q8IVH8); assay: KINOMEscan; type: binding
WNK1 = WNK1 (Homo sapiens (Human), UniProt Q9H4A3); assay: KINOMEscan; type: binding
EPHA6 = EPHA6 (Homo sapiens (Human), UniProt Q9UF33); assay: KINOMEscan; type: binding
CSNK2A1 = CSNK2A1 (Homo sapiens (Human), UniProt P68400); assay: KINOMEscan; type: binding
p38-gamma = p38-gamma (Homo sapiens (Human), UniProt P53778); assay: KINOMEscan; type: binding
RIOK3 = RIOK3 (Homo sapiens (Human), UniProt O14730); assay: KINOMEscan; type: binding
FRK = FRK (Homo sapiens (Human), UniProt P42685); assay: KINOMEscan; type: binding
AKT2 = AKT2 (Homo sapiens (Human), UniProt P31751); assay: KINOMEscan; type: binding
CTK = CTK (Homo sapiens (Human), UniProt P42679); assay: KINOMEscan; type: binding
VRK2 = VRK2 (Homo sapiens (Human), UniProt Q86Y07); assay: KINOMEscan; type: binding
ERBB4 = ERBB4 (Homo sapiens (Human), UniProt Q15303); assay: KINOMEscan; type: binding
INSRR = INSRR (Homo sapiens (Human), UniProt P14616); assay: KINOMEscan; type: binding
PAK6 = PAK6 (Homo sapiens (Human), UniProt Q9NQU5); assay: KINOMEscan; type: binding
RET (V804L) = RET (V804L) (Homo sapiens (Human), UniProt P07949, V804L); assay: KINOMEscan; type: binding
KIT = KIT (Homo sapiens (Human), UniProt P10721); assay: KINOMEscan; type: binding
PKNB (M. tuberculosis) = PKNB (M. tuberculosis) (Mycobacterium tuberculosis (strain ATCC 25618 / H37Rv), UniProt P9WI81)
PFTK1 = PFTK1 (Homo sapiens (Human), UniProt O94921); assay: KINOMEscan; type: binding
RET = RET (Homo sapiens (Human), UniProt P07949); assay: KINOMEscan; type: binding
BTK = BTK (Homo sapiens (Human), UniProt Q06187); assay: KINOMEscan; type: binding
CSNK1G3 = CSNK1G3 (Homo sapiens (Human), UniProt Q9Y6M4); assay: KINOMEscan; type: binding
PRKG2 = PRKG2 (Homo sapiens (Human), UniProt Q13237); assay: KINOMEscan; type: binding
PRKCD = PRKCD (Homo sapiens (Human), UniProt Q05655); assay: KINOMEscan; type: binding
SIK2 = SIK2 (Homo sapiens (Human), UniProt Q9H0K1); assay: KINOMEscan; type: binding
TAOK2 = TAOK2 (Homo sapiens (Human), UniProt Q9UL54); assay: KINOMEscan; type: binding
MKNK1 = MKNK1 (Homo sapiens (Human), UniProt Q9BUB5); assay: KINOMEscan; type: binding
PIK3CG = PIK3CG (Homo sapiens (Human), UniProt P48736); assay: KINOMEscan; type: binding
PRKCE = PRKCE (Homo sapiens (Human), UniProt Q02156); assay: KINOMEscan; type: binding
NEK7 = NEK7 (Homo sapiens (Human), UniProt Q8TDX7); assay: KINOMEscan; type: binding
OSR1 = OSR1 (Homo sapiens (Human), UniProt O95747); assay: KINOMEscan; type: binding
RIOK2 = RIOK2 (Homo sapiens (Human), UniProt Q9BVS4); assay: KINOMEscan; type: binding
ERBB3 = ERBB3 (Homo sapiens (Human), UniProt P21860); assay: KINOMEscan; type: binding
EGFR (L861Q) = EGFR (L861Q) (Homo sapiens (Human), UniProt P00533, L861Q); assay: KINOMEscan; type: binding
KIT (V559D, V654A) = KIT (V559D, V654A) (Homo sapiens (Human), UniProt P10721, V559D/V654A); assay: KINOMEscan; type: binding
ABL1-nonphosphorylated = ABL1-nonphosphorylated (Homo sapiens (Human), UniProt P00519); assay: KINOMEscan; type: binding
LATS2 = LATS2 (Homo sapiens (Human), UniProt Q9NRM7); assay: KINOMEscan; type: binding
BRSK2 = BRSK2 (Homo sapiens (Human), UniProt Q8IWQ3); assay: KINOMEscan; type: binding
TNIK = TNIK (Homo sapiens (Human), UniProt Q9UKE5); assay: KINOMEscan; type: binding
PIM2 = PIM2 (Homo sapiens (Human), UniProt Q9P1W9); assay: KINOMEscan; type: binding
Sequence of PIM2 (Q9P1W9 whole entry): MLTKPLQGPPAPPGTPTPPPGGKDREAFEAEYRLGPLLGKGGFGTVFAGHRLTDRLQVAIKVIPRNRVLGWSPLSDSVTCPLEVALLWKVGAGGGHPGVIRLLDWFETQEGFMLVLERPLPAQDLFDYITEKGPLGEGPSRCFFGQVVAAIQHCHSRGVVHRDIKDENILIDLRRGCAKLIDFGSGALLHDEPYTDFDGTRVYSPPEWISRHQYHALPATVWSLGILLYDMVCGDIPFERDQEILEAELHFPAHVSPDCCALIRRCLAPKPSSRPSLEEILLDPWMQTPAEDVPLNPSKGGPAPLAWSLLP

Sequence of SIK2 (Q9H0K1 whole entry): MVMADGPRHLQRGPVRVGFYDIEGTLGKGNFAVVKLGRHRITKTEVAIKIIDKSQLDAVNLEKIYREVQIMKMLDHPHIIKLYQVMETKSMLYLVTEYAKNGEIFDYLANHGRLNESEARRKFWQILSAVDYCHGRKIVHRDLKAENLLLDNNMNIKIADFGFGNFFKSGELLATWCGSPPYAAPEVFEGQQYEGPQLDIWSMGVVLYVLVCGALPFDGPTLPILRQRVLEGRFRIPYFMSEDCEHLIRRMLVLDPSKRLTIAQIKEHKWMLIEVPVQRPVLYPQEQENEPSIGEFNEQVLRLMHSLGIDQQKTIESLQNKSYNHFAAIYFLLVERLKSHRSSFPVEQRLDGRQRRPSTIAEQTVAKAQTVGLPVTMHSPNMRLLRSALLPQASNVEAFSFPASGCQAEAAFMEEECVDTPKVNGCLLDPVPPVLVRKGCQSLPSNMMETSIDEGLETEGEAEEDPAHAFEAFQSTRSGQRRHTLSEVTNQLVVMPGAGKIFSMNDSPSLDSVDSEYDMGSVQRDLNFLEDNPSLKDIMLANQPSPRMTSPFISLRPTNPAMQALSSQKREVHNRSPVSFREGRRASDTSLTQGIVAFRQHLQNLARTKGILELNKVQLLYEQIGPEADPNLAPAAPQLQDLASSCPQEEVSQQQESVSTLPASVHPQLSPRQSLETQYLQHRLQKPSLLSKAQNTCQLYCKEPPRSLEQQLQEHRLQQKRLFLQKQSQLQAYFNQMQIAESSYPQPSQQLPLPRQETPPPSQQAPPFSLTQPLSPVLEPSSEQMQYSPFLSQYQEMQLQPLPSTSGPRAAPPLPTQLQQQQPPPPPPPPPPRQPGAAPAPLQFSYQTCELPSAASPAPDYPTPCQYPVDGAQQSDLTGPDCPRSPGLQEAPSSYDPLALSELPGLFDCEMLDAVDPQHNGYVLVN
Sequence of p38-gamma (P53778 whole entry): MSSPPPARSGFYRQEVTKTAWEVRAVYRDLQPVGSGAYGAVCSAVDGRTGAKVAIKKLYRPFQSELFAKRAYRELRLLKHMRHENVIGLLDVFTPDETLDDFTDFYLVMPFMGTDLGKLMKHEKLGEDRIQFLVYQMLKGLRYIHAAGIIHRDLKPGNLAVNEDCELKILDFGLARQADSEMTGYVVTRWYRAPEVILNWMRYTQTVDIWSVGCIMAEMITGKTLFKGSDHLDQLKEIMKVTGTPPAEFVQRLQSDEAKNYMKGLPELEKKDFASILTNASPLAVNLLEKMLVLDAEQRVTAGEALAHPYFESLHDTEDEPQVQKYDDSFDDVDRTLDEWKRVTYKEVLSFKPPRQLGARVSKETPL
Sequence of RIOK3 (O14730 whole entry): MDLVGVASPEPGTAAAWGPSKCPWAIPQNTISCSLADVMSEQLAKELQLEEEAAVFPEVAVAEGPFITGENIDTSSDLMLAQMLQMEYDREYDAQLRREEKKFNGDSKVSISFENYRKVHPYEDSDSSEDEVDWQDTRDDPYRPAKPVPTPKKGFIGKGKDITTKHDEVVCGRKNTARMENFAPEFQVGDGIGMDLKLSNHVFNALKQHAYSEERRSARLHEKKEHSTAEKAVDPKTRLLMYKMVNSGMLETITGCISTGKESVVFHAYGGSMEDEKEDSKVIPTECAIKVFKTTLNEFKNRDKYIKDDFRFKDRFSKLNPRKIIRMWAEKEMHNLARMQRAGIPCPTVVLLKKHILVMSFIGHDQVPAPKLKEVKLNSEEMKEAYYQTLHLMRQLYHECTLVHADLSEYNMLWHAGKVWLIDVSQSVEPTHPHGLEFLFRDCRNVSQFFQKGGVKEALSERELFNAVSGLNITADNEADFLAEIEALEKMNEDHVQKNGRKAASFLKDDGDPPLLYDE
Sequence of TAOK2 (Q9UL54 whole entry): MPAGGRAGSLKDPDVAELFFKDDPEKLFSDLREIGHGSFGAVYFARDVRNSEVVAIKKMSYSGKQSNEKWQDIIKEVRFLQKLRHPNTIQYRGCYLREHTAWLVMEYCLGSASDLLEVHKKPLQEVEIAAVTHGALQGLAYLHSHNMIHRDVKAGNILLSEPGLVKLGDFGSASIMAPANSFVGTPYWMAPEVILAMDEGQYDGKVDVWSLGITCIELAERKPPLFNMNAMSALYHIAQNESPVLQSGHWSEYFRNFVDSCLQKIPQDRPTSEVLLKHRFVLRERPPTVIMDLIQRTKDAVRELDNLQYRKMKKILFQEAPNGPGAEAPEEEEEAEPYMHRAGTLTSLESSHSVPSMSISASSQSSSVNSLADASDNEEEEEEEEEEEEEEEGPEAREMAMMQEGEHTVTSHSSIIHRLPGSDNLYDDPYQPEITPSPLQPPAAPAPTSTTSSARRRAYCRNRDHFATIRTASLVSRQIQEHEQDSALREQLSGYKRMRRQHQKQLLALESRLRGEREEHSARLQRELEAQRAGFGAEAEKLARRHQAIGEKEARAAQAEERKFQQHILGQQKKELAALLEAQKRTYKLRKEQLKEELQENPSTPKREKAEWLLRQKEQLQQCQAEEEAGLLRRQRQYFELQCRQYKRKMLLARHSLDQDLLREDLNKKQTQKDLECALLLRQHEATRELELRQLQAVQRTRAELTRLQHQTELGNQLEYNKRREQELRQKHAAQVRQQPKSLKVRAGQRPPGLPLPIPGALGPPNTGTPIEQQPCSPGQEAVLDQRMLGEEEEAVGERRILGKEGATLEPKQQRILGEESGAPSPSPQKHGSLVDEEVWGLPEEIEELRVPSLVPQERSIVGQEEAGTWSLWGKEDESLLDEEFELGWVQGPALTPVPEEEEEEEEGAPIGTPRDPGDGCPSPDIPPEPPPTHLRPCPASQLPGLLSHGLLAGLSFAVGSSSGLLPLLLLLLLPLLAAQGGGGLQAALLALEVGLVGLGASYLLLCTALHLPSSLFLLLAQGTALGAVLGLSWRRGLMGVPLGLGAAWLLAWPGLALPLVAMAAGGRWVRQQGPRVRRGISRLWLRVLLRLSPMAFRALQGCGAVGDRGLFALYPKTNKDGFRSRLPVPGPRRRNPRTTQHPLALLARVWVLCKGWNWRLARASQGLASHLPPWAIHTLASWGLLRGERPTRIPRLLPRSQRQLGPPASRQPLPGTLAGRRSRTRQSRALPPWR
Sequence of TNIK (Q9UKE5 whole entry): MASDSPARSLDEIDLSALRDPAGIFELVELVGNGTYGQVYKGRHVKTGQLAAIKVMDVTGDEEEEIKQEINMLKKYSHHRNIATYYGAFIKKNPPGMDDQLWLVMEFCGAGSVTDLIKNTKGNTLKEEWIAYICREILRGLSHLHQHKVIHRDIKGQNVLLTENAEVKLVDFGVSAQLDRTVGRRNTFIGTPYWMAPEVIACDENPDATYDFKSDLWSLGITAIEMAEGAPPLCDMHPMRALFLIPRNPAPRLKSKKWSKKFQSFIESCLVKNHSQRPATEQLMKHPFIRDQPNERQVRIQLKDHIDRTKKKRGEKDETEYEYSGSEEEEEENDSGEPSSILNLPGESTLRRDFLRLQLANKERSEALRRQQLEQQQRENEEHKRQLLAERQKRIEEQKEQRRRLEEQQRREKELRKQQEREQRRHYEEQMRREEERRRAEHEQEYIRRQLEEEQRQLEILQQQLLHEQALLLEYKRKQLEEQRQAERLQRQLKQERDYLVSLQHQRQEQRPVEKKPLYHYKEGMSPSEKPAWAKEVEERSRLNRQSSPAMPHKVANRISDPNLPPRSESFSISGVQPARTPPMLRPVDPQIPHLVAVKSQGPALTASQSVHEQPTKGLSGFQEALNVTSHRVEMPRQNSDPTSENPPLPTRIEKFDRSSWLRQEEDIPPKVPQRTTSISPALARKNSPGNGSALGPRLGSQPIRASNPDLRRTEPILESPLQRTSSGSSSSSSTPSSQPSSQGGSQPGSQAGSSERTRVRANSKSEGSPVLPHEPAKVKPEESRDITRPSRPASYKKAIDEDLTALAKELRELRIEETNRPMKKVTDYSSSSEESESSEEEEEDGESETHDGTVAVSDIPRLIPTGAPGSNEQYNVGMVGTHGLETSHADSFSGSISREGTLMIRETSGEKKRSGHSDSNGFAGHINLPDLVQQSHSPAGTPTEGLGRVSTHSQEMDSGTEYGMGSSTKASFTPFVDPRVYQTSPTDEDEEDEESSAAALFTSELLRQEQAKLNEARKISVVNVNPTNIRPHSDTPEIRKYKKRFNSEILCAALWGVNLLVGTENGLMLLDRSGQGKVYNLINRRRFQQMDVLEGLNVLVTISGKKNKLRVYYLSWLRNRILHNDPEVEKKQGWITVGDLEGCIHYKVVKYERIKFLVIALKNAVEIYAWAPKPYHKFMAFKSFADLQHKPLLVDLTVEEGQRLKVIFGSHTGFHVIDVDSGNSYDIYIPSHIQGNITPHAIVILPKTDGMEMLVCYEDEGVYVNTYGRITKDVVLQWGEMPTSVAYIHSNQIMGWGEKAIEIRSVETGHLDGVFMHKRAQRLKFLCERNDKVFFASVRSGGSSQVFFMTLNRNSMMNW
Sequence of NEK7 (Q8TDX7 whole entry): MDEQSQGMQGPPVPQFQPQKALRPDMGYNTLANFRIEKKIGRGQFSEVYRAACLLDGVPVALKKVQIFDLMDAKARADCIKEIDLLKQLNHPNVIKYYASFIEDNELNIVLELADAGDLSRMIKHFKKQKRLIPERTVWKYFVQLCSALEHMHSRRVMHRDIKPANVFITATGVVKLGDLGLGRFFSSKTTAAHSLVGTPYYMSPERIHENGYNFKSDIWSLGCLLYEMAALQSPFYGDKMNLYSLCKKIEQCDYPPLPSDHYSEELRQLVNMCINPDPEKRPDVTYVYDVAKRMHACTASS

In the case of COc1ccc(N2C(=O)N(c3c(C)cccc3C)Cc3cnc(Nc4ccc(N5CCN(C)CC5)cc4)nc32)c(OC)c1 [HG-11-136-01], the “KINOMEscan EPHA7” value (EPHA7) is reported as 72, the “KINOMEscan KIT (D816V)” value (KIT (D816V)) is reported as 0.2 and the “KINOMEscan MAP4K5” value (MAP4K5) is reported as 0.3. For the same molecule, the “KINOMEscan MAP4K3” value (MAP4K3) was 1.8, the “KINOMEscan WNK1” value (WNK1) was 89 and the “KINOMEscan EPHA6” value (EPHA6) was 0.2. The “KINOMEscan CSNK2A1” value (CSNK2A1) was 1.9, the “KINOMEscan p38-gamma” value (p38-gamma) was 91 and the “KINOMEscan RIOK3” value (RIOK3) was 25. The “KINOMEscan FRK” value (FRK) was 0.05, the “KINOMEscan AKT2” value (AKT2) was 100 and the “KINOMEscan CTK” value (CTK) was 33. The “KINOMEscan VRK2” value (VRK2) was 86, the “KINOMEscan ERBB4” value (ERBB4) was 0.2 and the “KINOMEscan INSRR” value (INSRR) was 100. The “KINOMEscan PAK6” value (PAK6) was 37, the “KINOMEscan RET (V804L)” value (RET (V804L)) was 24 and the “KINOMEscan KIT” value (KIT) was 0. For the same molecule, the “KINOMEscan PKNB (M. tuberculosis)” value (PKNB (M. tuberculosis)) was 6.6, the “KINOMEscan PFTK1” value (PFTK1) was 100 and the “KINOMEscan RET” value (RET) was 0. The “KINOMEscan BTK” value (BTK) was 0.05, the “KINOMEscan CSNK1G3” value (CSNK1G3) was 84 and the “KINOMEscan PRKG2” value (PRKG2) was 92. For the same molecule, the “KINOMEscan PRKCD” value (PRKCD) was 94, the “KINOMEscan SIK2” value (SIK2) was 6.1 and the “KINOMEscan TAOK2” value (TAOK2) was 0. For the same molecule, the “KINOMEscan MKNK1” value (MKNK1) was 85, the “KINOMEscan PIK3CG” value (PIK3CG) was 77 and the “KINOMEscan PRKCE” value (PRKCE) was 61. The “KINOMEscan NEK7” value (NEK7) was 100, the “KINOMEscan OSR1” value (OSR1) was 49 and the “KINOMEscan RIOK2” value (RIOK2) was 87. The “KINOMEscan ERBB3” value (ERBB3) was 0, the “KINOMEscan EGFR (L861Q)” value (EGFR (L861Q)) was 0 and the “KINOMEscan KIT (V559D, V654A)” value (KIT (V559D, V654A)) was 2.2. The “KINOMEscan ABL1-nonphosphorylated” value (ABL1-nonphosphorylated) was 0, the “KINOMEscan LATS2” value (LATS2) was 60 and the “KINOMEscan BRSK2” value (BRSK2) was 91. The “KINOMEscan TNIK” value (TNIK) was 2.8 and the “KINOMEscan PIM2” value (PIM2) was 100.
